How the values were obtained:
Assay type in all cases: cell-based
KCNQ2 = KCNQ2 (Homo sapiens, UniProt O43526); assay: TEVC of KCNQ2 homomers expressed in Xenopus laevis oocytes
Description: (§1) We generated cRNA transcripts encoding human KCNQ1, 2, 3, and 5 (wild-type and mutant) by in vitro transcription using the mMessage mMachine kit (Thermo Fisher Scientific, Waltham, MA, USA) according to manufacturer’s instructions, after vector linearization, from cDNA sub-cloned into expression vectors (pTLNx and pXOOM) incorporating Xenopus laevis β-globin 5’ and 3’ UTRs flanking the coding region to enhance translation and cRNA stability. Mutant KCNQ cDNAs were generated by Genscript (Piscataway, NJ, USA) and cRNAs made as above. We injected defolliculated stage V and VI Xenopus laevis oocytes (Xenoocyte, Dexter, MI, USA) with KCNQ cRNAs (2–10 ng) and incubated the oocytes at 16 °C in ND96 oocyte storage solution containing penicillin and streptomycin, with daily washing, for 2–4 days prior to two-electrode voltage-clamp (TEVC) recording.
(§2) We performed TEVC at room temperature using an OC-725C amplifier (Warner Instruments, Hamden, CT, USA) and pClamp10 software (Molecular Devices, Sunnyvale, CA, USA) 2–4 days after cRNA injection. We placed oocytes in a small-volume oocyte bath (Warner) and viewed them with a dissection microscope for cellular electrophysiology. We sourced chemicals from Sigma-Aldrich (St. Louis, MO, USA) and Combi-Blocks (San Diego, CA, USA). We studied effects of Salvia rosmarinus extracts and of compounds, solubilized directly in bath solution (in mM): 96 NaCl, 4 KCl, 1 MgCl2, 1 CaCl2, 10 HEPES (pH 7.6). We introduced extracts or compounds into the oocyte recording bath by gravity perfusion at a constant flow of 1 ml per minute for 3 min prior to recording. Pipettes were of 1-2 MΩ resistance when filled with 3 M KCl. […] We analyzed data using Clampfit (Molecular Devices) and Graphpad Prism software (GraphPad, San Diego, CA, USA), stating values as mean ± SEM. We plotted raw or normalized tail currents versus prepulse voltage and fitted with a single Boltzmann function:1 g=(A1−A2)/1+exp[V1/2−V/Vs]y+A2 where g is the normalized tail conductance, A1 is the initial value at -∞, A2 is the final value at +∞, V1/2 is the half-maximal voltage of activation and Vs the slope factor. We fitted activation and deactivation kinetics with single exponential functions.

KCNQ3* (KCNQ3-A315T) = KCNQ3* (KCNQ3-A315T) (Homo sapiens, UniProt O43525, A315T); assay: TEVC of KCNQ3* homomers expressed in Xenopus laevis oocytes
KCNQ3* (KCNQ3-A315T), sequence (O43525 whole entry A315T): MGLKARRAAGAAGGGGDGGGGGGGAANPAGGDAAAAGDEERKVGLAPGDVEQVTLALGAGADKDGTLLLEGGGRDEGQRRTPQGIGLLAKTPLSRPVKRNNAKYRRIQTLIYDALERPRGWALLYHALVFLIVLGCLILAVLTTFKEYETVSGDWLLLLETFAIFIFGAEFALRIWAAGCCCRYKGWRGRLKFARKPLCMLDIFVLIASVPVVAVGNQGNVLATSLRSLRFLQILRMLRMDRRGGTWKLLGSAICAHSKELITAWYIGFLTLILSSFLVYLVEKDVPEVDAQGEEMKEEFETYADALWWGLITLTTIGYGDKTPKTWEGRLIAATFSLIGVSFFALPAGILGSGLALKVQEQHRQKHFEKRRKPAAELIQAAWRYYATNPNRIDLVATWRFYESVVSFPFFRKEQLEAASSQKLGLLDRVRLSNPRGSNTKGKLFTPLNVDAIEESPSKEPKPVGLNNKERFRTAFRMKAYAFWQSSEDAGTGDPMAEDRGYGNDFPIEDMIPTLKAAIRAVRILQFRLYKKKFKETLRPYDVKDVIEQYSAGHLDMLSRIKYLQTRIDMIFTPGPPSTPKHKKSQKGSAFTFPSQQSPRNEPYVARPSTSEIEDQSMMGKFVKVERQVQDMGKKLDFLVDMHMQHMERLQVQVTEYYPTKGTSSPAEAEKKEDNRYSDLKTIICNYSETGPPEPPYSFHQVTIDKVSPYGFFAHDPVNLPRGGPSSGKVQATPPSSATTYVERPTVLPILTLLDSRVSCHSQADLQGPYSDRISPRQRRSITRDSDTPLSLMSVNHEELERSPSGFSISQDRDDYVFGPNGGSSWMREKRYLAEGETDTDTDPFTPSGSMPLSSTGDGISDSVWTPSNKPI

KCNQ3/5 = target: T1, KCNQ3/5 (Homo sapiens, UniProt O43525+Q9NR82); assay: TEVC of KCNQ3/5 heteromers expressed in Xenopus laevis oocytes
T1 construct: expressed in transfected cells; host or cells: Xenopus laevis oocytes co-injected with cRNAs
Description: as §1, §2

KCNQ2/5 = target: T2, KCNQ2/5 (Homo sapiens, UniProt O43526+Q9NR82); assay: TEVC of KCNQ2/5 heteromers expressed in Xenopus laevis oocytes
T2 construct: expressed in transfected cells; host or cells: Xenopus laevis oocytes co-injected with cRNAs
Description: as §1
We performed TEVC at room temperature using an OC-725C amplifier (Warner Instruments, Hamden, CT, USA) and pClamp10 software (Molecular Devices, Sunnyvale, CA, USA) 2–4 days after cRNA injection. We placed oocytes in a small-volume oocyte bath (Warner) and viewed them with a dissection microscope for cellular electrophysiology. We sourced chemicals from Sigma-Aldrich (St. Louis, MO, USA) and Combi-Blocks (San Diego, CA, USA). We studied effects of Salvia rosmarinus extracts and of compounds, solubilized directly in bath solution (in mM): 96 NaCl, 4 KCl, 1 MgCl2, 1 CaCl2, 10 HEPES (pH 7.6). We introduced extracts or compounds into the oocyte recording bath by gravity perfusion at a constant flow of 1 ml per minute for 3 min prior to recording. Pipettes were of 1-2 MΩ resistance when filled with 3 M KCl. We recorded currents in response to voltage pulses between −120 mV and +40 mV at 10 mV intervals from a holding potential of −80 mV, to yield current-voltage relationships and examine activation kinetics. We analyzed data using Clampfit (Molecular Devices) and Graphpad Prism software (GraphPad, San Diego, CA, USA), stating values as mean ± SEM. We plotted raw or normalized tail currents versus prepulse voltage and fitted with a single Boltzmann function:1 g=(A1−A2)/1+exp[V1/2−V/Vs]y+A2 where g is the normalized tail conductance, A1 is the initial value at -∞, A2 is the final value at +∞, V1/2 is the half-maximal voltage of activation and Vs the slope factor. We fitted activation and deactivation kinetics with single exponential functions.

KCNQ3*-W265L = KCNQ3*-W265L (Homo sapiens, UniProt O43525, A315T/W265L); assay: TEVC of mutant KCNQ3*-W265L in oocytes
Description: as §1, §2

[1] = target: T3, KCNQ3* coexpressed with Danio rerio VSP (DrVSP) (Homo sapiens, UniProt O43525, A315T); assay: TEVC of KCNQ3* coexpressed with DrVSP, PIP2 depletion at +120 mV; settings: 5 µM
T3 construct: expressed in transfected cells; host or cells: Xenopus laevis oocytes
Description: Under baseline conditions, binding of the […], lipid-derived signaling molecule phosphatidylinositol 4,5-bisphosphate (PIP2) to KCNQ3 (and other KCNQ isoforms) is required for efficient coupling of the voltage sensor to pore opening and thus voltage-dependent gating[22],[23]. […] Another strategy for PIP2 reduction is to express a voltage-sensitive phosphatase (VSP) that reduces PIP2 levels upon membrane depolarization. […]
We performed TEVC at room temperature using an OC-725C amplifier (Warner Instruments, Hamden, CT, USA) and pClamp10 software (Molecular Devices, Sunnyvale, CA, USA) 2–4 days after cRNA injection. […] We recorded currents in response to voltage pulses between −120 mV and +40 mV at 10 mV intervals from a holding potential of −80 mV, to yield current-voltage relationships and examine activation kinetics. We analyzed data using Clampfit (Molecular Devices) and Graphpad Prism software (GraphPad, San Diego, CA, USA), stating values as mean ± SEM. […]

[2] = 5 µM, post 3 hrs. incubation 30 µM Wortmannin

Question: What does the source list for `CC(C)c1cc2c(c(O)c1O)[C@@]1(C(=O)O)CCCC(C)(C)[C@@H]1CC2` [Carnosic acid, carnosic acid]?
Answer: V0.5 Normalized tail current (KCNQ2; 0.1 µM): -41.03 ± 1.43 mV; V0.5 Normalized tail current (KCNQ2; 1 µM): -44.14 ± 0.95 mV; V0.5 Normalized tail current (KCNQ2; 3 µM): -46.74 ± 0.85 mV; V0.5 Normalized tail current (KCNQ2; 10 µM): -45.67 ± 0.73 mV; V0.5 Normalized tail current (KCNQ2; 30 µM): -45.20 ± 0.88 mV; V0.5 Normalized tail current (KCNQ2; 100 µM): -43.10 ± 0.64 mV; activity across the concentration range tested (KCNQ2; 0.1-100 µM): only weakly active; V0.5 Normalized tail current (KCNQ3* (KCNQ3-A315T); 0.1 µM): -55.21 ± 0.45 mV; V0.5 Normalized tail current (KCNQ3* (KCNQ3-A315T); 1 µM): -59.60 ± 0.47 mV; V0.5 Normalized tail current (KCNQ3* (KCNQ3-A315T); 3 µM): -63.92 ± 0.74 mV; slowing of deactivation rate (KCNQ3* (KCNQ3-A315T); 3 µM, at −120 mV): > fourfold; change of activation rate (KCNQ3* (KCNQ3-A315T); 3 µM, voltage-independent): doubled; Slope (KCNQ3* (KCNQ3-A315T); 5 µM): 7.61 ± 0.94 mV; V0.5 Normalized tail current (KCNQ3* (KCNQ3-A315T); 5 µM): -63.93 ± 1.08 mV; Slope (KCNQ3* (KCNQ3-A315T); [2]): 6.70 ± 0.56 mV; V0.5 Normalized tail current (KCNQ3* (KCNQ3-A315T); [2]): -46.82 ± 0.64 mV; time to saturation of current potentiation upon wash-in (KCNQ3* (KCNQ3-A315T); 5 µM, −60 mV): around 150 s; V0.5 Normalized tail current (KCNQ3* (KCNQ3-A315T); 10 µM): -73.28 ± 1.41 mV; V0.5 Normalized tail current (KCNQ3* (KCNQ3-A315T); 30 µM): -92.58 ± 2.21 mV; Slope (KCNQ3* (KCNQ3-A315T); 100 µM): 9.91 ± 0.62 mV; V0.5 non-normalized tail current (KCNQ3* (KCNQ3-A315T); 100 µM): -111.1 ± 5.75 mV; effect on EM of unclamped oocytes (KCNQ3* (KCNQ3-A315T); 100 µM (hesperidin 30 µM)): hyperpolarized; EC50 (KCNQ3* (KCNQ3-A315T); EC50 EM, EM of unclamped oocytes): 1.19 ± 0.19 µM; EC50 (KCNQ3* (KCNQ3-A315T); EC50 Fold change -60 mV, current increase at −60 mV): 5.43 ± 0.37 µM; EC50 (KCNQ3* (KCNQ3-A315T); EC50 V0.5 Activation, ΔV0.5act): 18 ± 0.72 µM; V0.5 Normalized tail current (KCNQ3/5; 0.1 µM): -41.88 ± 0.50 mV; V0.5 Normalized tail current (KCNQ3/5; 1 µM): -47.59 ± 0.51 mV; V0.5 Normalized tail current (KCNQ3/5; 3 µM): -52.07 ± 0.47 mV; V0.5 Normalized tail current (KCNQ3/5; 10 µM): -56.02 ± 0.57 mV; V0.5 Normalized tail current (KCNQ3/5; 30 µM): -62.10 ± 0.87 mV; V0.5 Normalized tail current (KCNQ3/5; 100 µM): -68.83 ± 1.11 mV; channel opening (KCNQ3/5; 100 µM): powerful opener; EC50 (KCNQ3/5; EC50 EM): 4.21 ± 0.16 µM; EC50 (KCNQ3/5; EC50 V0.5 Activation): 4.53 ± 0.11 µM; V0.5 Normalized tail current (KCNQ2/5; 0.1 µM): -40.58 ± 1.11 mV; V0.5 Normalized tail current (KCNQ2/5; 1 µM): -44.54 ± 0.73 mV; V0.5 Normalized tail current (KCNQ2/5; 3 µM): -47.07 ± 0.55 mV; V0.5 Normalized tail current (KCNQ2/5; 10 µM): -46.44 ± 0.68 mV; V0.5 Normalized tail current (KCNQ2/5; 30 µM): -45.89 ± 0.76 mV; V0.5 Normalized tail current (KCNQ2/5; 100 µM): -46.50 ± 0.97 mV; EC50 (KCNQ2/5; EC50 EM): 4.76 ± 0.34 µM; EC50 (KCNQ2/5; EC50 V0.5 Activation): 0.74 ± 0.12 µM; V0.5 Normalized tail current (KCNQ3*-W265L; 0.1 µM): -75.60 ± 1.02 mV; V0.5 Normalized tail current (KCNQ3*-W265L; 1 µM): -86.19 ± 1.09 mV; V0.5 Normalized tail current (KCNQ3*-W265L; 3 µM): -96.66 ± 1.64 mV; V0.5 Normalized tail current (KCNQ3*-W265L; 10 µM): -105.3 ± 2.56 mV; V0.5 Normalized tail current (KCNQ3*-W265L; 100 µM): -146.0 ± 1.92 mV; EC50 (KCNQ3*-W265L; EC50 EM): 0.14 ± 0.03 µM; EC50 (KCNQ3*-W265L; EC50 V0.5 Activation): 2.11 ± 0.09 µM; sensitivity in terms of potency versus KCNQ3* (KCNQ3*-W265L; dose-response): approximately fivefold; effect on DrVSP-induced KCNQ3* current decay [1]: reduced or prevented

— paper PMC10272180, “Ancient medicinal plant rosemary contains a highly efficacious and isoform-selective KCNQ potassium channel opener” (Communications Biology, 2023)
